Experimental data taken from the supplement of paper PMC10307832.

compound: COc1cc([C@@H]2c3cc4c(cc3[C@@H](O[C@@H]3O[C@@H]5CO[C@@H](C)O[C@H]5[C@H](O)[C@H]3O)[C@H]3COC(=O)[C@H]23)OCO4)cc(OC)c1O [Etoposide] + Cc1nc(NC(=O)N2CCC[C@H]2C(N)=O)sc1-c1ccnc(C(C)(C)C(F)(F)F)c1 [Alpelisib] (partner 2 µM); assay: relative viability (nuclei count vs DMSO), 5 days (fraction); higher = more cells survive; settings: first compound 0.01 µM
Outline: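 One day after seeding in 1536-well plates, lung cancer cell lines were dosed by pin tool. Dosing was either single-drug or a fixed anchor-drug dose plus five library-drug doses (not always all listed) in √10 steps. After 5 days, nuclei were stained in one fix-and-stain step and counted on 4× images, and relative viability is the nuclei count of treated wells over that of vehicle wells, given as the median of duplicate plates.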

Going from Calu-6 to HCC-366, the relative viability falls from 0.837 to 0.305.

Going from NCI-H1666 to NCI-H647, the relative viability rises from 0.929 to 1.19.

First: SK-MES-1
Second: COR-L23
The relative viability of the first is higher: 0.746 for the first, 0.543 for the second.

Going from COR-L 105 to IA-LM, the relative viability falls from 1.08 to 0.773.

Going from HCC-44 to A549, the relative viability rises from 0.635 to 0.737.

Compared with NCI-H2009, NCI-H520 is lower in relative viability: 1.12 for the first, 0.873 for the second.

First: SW 1573
Second: NCI-H1299
The relative viability of the first is lower: 0.6 for the first, 1.04 for the second.

First: NCI-H1792
Second: NCI-H2023
The relative viability of the first is higher: 0.61 for the first, 0.597 for the second.

Going from NCI-H1563 to SK-LU-1, the relative viability falls from 0.855 to 0.781.

In the case of NCI-H661, the relative viability is reported as 0.995.

same assay, conditions: first compound 0.03162 µM

Compared with NCI-H838, EBC-1 is lower in relative viability: 1.08 for the first, 0.909 for the second.

Going from NCI-H1703 to NCI-H1993, the relative viability rises from 0.367 to 0.719.

Going from NCI-H2087 to PC-14, the relative viability rises from 0.985 to 1.08.

Going from LCLC-103H to NCI-H596, the relative viability falls from 1.12 to 0.491.

First: NCI-H2228
Second: EMC-BAC-2
The relative viability of the first is higher: 1.01 for the first, 0.65 for the second.

Going from NCI-H2085 to Calu-6, the relative viability rises from 0.939 to 1.08.

First: HCC-366
Second: NCI-H1666
The relative viability of the first is lower: 0.39 for the first, 0.931 for the second.

Compared with NCI-H647, SK-MES-1 is lower in relative viability: 1.22 for the first, 0.957 for the second.

First: COR-L23
Second: COR-L 105
The relative viability of the first is lower: 0.891 for the first, 1.06 for the second.

Going from IA-LM to HCC-44, the relative viability rises from 0.815 to 0.89.

Compared with A549, NCI-H2009 is higher in relative viability: 0.793 for the first, 1.18 for the second.

Going from NCI-H520 to SW 1573, the relative viability falls from 0.925 to 0.857.

First: NCI-H1299
Second: NCI-H1792
The relative viability of the first is higher: 1.04 for the first, 0.415 for the second.

First: NCI-H2023
Second: NCI-H1563
The relative viability of the first is lower: 0.615 for the first, 0.918 for the second.

Compared with SK-LU-1, NCI-H661 is lower in relative viability: 0.875 for the first, 0.61 for the second.

same assay, conditions: first compound 0.1 µM

Going from NCI-H838 to EBC-1, the relative viability falls from 0.887 to 0.452.

Compared with NCI-H1703, NCI-H1993 is higher in relative viability: 0.31 for the first, 0.649 for the second.

Going from NCI-H2087 to PC-14, the relative viability rises from 1.01 to 1.1.

Going from LCLC-103H to NCI-H2228, the relative viability falls from 0.774 to 0.713.

First: EMC-BAC-2
Second: NCI-H2085
The relative viability of the first is lower: 0.522 for the first, 0.824 for the second.

Compared with Calu-6, HCC-366 is lower in relative viability: 0.798 for the first, 0.333 for the second.

Compared with NCI-H1666, NCI-H647 is higher in relative viability: 0.69 for the first, 1.02 for the second.

Going from SK-MES-1 to COR-L23, the relative viability rises from 0.496 to 0.771.

First: COR-L 105
Second: IA-LM
The relative viability of the first is higher: 1.12 for the first, 0.477 for the second.

First: HCC-44
Second: A549
The relative viability of the first is higher: 0.857 for the first, 0.375 for the second.

Compared with NCI-H2009, NCI-H520 is lower in relative viability: 1.19 for the first, 0.965 for the second.

Compared with SW 1573, NCI-H1299 is higher in relative viability: 0.55 for the first, 1.14 for the second.

First: NCI-H1792
Second: NCI-H2023
The relative viability of the first is lower: 0.374 for the first, 0.543 for the second.

First: NCI-H1563
Second: SK-LU-1
The relative viability of the first is higher: 0.868 for the first, 0.648 for the second.

NCI-H661 showed a relative viability of 0.413.

same assay, conditions: first compound 0.3162 µM

Going from NCI-H838 to EBC-1, the relative viability rises from 0.666 to 0.75.

First: NCI-H1703
Second: NCI-H1993
The relative viability of the first is lower: 0.287 for the first, 0.624 for the second.

Going from NCI-H2087 to PC-14, the relative viability rises from 0.512 to 0.835.

First: LCLC-103H
Second: NCI-H596
The relative viability of the first is higher: 0.973 for the first, 0.457 for the second.

Compared with NCI-H2228, EMC-BAC-2 is lower in relative viability: 0.442 for the first, 0.238 for the second.

Going from NCI-H2085 to Calu-6, the relative viability rises from 0.552 to 0.709.

First: HCC-366
Second: NCI-H1666
The relative viability of the first is lower: 0.162 for the first, 0.315 for the second.

First: NCI-H647
Second: SK-MES-1
The relative viability of the first is lower: 0.429 for the first, 0.518 for the second.

Compared with COR-L23, COR-L 105 is higher in relative viability: 0.461 for the first, 0.807 for the second.

Going from IA-LM to HCC-44, the relative viability falls from 0.645 to 0.569.

Going from A549 to NCI-H2009, the relative viability rises from 0.224 to 1.06.

First: NCI-H520
Second: SW 1573
The relative viability of the first is higher: 0.836 for the first, 0.404 for the second.

First: NCI-H1299
Second: NCI-H1792
The relative viability of the first is higher: 1.02 for the first, 0.549 for the second.

Going from NCI-H2023 to NCI-H1563, the relative viability rises from 0.388 to 0.588.

First: SK-LU-1
Second: NCI-H661
The relative viability of the first is lower: 0.299 for the first, 0.388 for the second.

same assay, conditions: first compound 1 µM

First: NCI-H838
Second: EBC-1
The relative viability of the first is higher: 0.387 for the first, 0.38 for the second.

First: NCI-H1703
Second: NCI-H1993
The relative viability of the first is lower: 0.255 for the first, 0.533 for the second.

Compared with NCI-H2087, PC-14 is higher in relative viability: 0.255 for the first, 0.808 for the second.

Going from LCLC-103H to NCI-H596, the relative viability falls from 0.703 to 0.425.

Compared with NCI-H2228, EMC-BAC-2 is lower in relative viability: 0.224 for the first, 0.15 for the second.

Compared with NCI-H2085, Calu-6 is lower in relative viability: 0.35 for the first, 0.338 for the second.

Compared with HCC-366, NCI-H1666 is higher in relative viability: 0.0382 for the first, 0.28 for the second.

Going from NCI-H647 to SK-MES-1, the relative viability rises from 0.125 to 0.249.

First: COR-L23
Second: COR-L 105
The relative viability of the first is lower: 0.219 for the first, 0.56 for the second.

First: IA-LM
Second: HCC-44
The relative viability of the first is higher: 0.552 for the first, 0.323 for the second.

Compared with A549, NCI-H2009 is higher in relative viability: 0.0497 for the first, 0.388 for the second.

Going from NCI-H520 to SW 1573, the relative viability falls from 0.906 to 0.223.

First: NCI-H1299
Second: NCI-H1792
The relative viability of the first is higher: 0.872 for the first, 0.302 for the second.

Compared with NCI-H2023, NCI-H1563 is higher in relative viability: 0.138 for the first, 0.557 for the second.

Compared with SK-LU-1, NCI-H661 is higher in relative viability: 0.233 for the first, 0.3 for the second.
